Laboratory results taken from patent publication US9539303B2, “Treatment of Ras-expressing tumors” (Celgene Corporation, priority 2006, dated 2017).
Where “and” joins values, the source holds several entries; their conditions need not be identical. Identical values can stand only once. Entries after “also recorded” stand apart in the source; their conditions may differ.

Key:
[1] = Animal weight and drug toxicity, PANC-1 study
From the text: (§1) Model Information—Female nude mice (nu/nu) between 5 and 6 weeks of age weighing approximately 20 grams were obtained from Harlan, Inc. (Madison, Wis.). PANC-1, obtained from the ATCC, is a pancreas tumor cell line originating from a person^(1-2). BxPC-3, obtained from the American Type Culture Collection (ATCC), is a pancreas tumor cell line originating from a person^(3-4). PANC-1 Study: Animals were implanted subcutaneously (SC) by trocar with fragments of PANC-1 harvested from SC growing tumors in nude mice hosts. When tumors grew to approximately 135 cubic millimeters (mm^3) in size (17 days following implantation, animals were pair-matched by tumor size into treatment and control groups; each treatment group contained nine mice. BxPC-3 Study: Animals were implanted subcutaneously (SC) by trocar with fragments of BxPC-3 harvested from SC growing tumors in nude mice hosts. When tumors grew to approximately 85 cubic millimeters (mm^3) in size (19 days following implantation), animals were pair-matched by tumor size into treatment and control groups; each treatment group contained nine mice. Animals in both studies were ear-tagged and followed individually throughout the experiment.
(§2) Study Design and Dosing—Initial doses were administered on Day 1 following pair-matching; both experiments were carried out as tumor growth inhibition (TGI) studies. Animals were dosed intravenously (IV) via tail vein with FK228 once every four days for three treatments (Q4Dx3) or by intraperitoneal (IP) injection with gemcitabine once every three days for four treatments (Q3Dx4), either alone or in combination, at the doses listed below (Table 1). To serve as a negative control, FK228 vehicle (2% ethanol, 8% propylene glycol, 90% 0.9% saline) was injected on a Q4Dx3 schedule.
(§3) Animal Weights—Individual and group mean weights±SD and percent weight change through Day 25 (PANC-1) or Day 29 (BxPC-3) were recorded twice weekly until study completion beginning Day 1. Final group mean weights±SD and group nadir values are reported; weight data from individual animals experiencing technical or drug-related deaths was censored from final group calculations.
(§4) Moribundity/Mortality—Animals were observed twice weekly for general moribundity and daily for mortality. Animal deaths were assessed as drug-related or technical based on factors including gross observation and weight loss; reported animal death information includes type, number, and day of death for each group.

[2] = tested on: acetylated histone 3; assay: Tissue biomarker immunoblotting of PANC-1 xenograft tumors: acetylated histone 3; type: in vivo; settings: PANC-1 tumors at study completion; FK228 5 mg/kg Q4Dx3, gemcitabine 80 mg/kg Q3Dx4, or both
Protocol: (§5) Specimen Collection: […] Tumor xenograft tissue and serum specimens were obtained from in vivo studies performed by the Preclinical Research Laboratory at the completion of the experiments. […] Serum was obtained from whole blood and stored frozen at -70° C. Tissue Biomarkers: Tumor levels of acetylated histone-4, histone-4, […] were quantified by immunoblotting as described. Briefly, frozen tissue was pulverized under liquid nitrogen and homogenized in hypotonic lysis buffer. Small aliquots of the extracts were used for analysis of protein concentration by micro-BCA assay with bovine serum albumin as a protein standard. An equal amount of extracts containing about 20-50 μg protein was electrophoresed in SDS polyacrylamide gels. Proteins were transferred to ImmunoBlot PVDF membrane and were probed with appropriate primary and secondary antibodies. The chemiluminescence signal was captured by autoradiography, quantified by densitometry and expressed as a ratio of actin in each sample lane. For each biomarker, means and standard errors were calculated in each treatment group. […] Following quantitative analysis of biomarker levels in each sample, the results were normalized for b-actin and expressed as percentages of untreated controls. […]

[3] = tested on: acetylated histone 4; assay: Tissue biomarker immunoblotting of PANC-1 xenograft tumors: acetylated histone 4; type: in vivo; settings: PANC-1 tumors at study completion; FK228 5 mg/kg Q4Dx3, gemcitabine 80 mg/kg Q3Dx4, or both
Protocol: as §5

[4] = tested on: BxPC-3 human pancreatic tumor xenograft; assay: BxPC-3 human pancreatic tumor xenograft tumor growth inhibition study (Example 3); type: in vivo, female nude mice (nu/nu); settings: BxPC-3 study; for % TGI: Day 29
From the text: (§6) (Madison, Wis.). […] Tumor measurements were converted to cubic millimeter tumor volume using the formula^(5): […] TGI values for each treatment group are reported at study completion; these calculations are based on the final study day. […] Individual mice lacking palpable tumors were classified as undergoing complete regression (CR). Animals experiencing partial or complete tumor regressions were censored from TGI calculations. However, data from these animals was included in statistical analysis calculations. In addition, weight data from these animals was included in daily and final group calculations. Tumor Necrosis-Degree of tumor necrosis was rated at each tumor measurement using the following arbitrary index: […]

[5] = tested on: Panc-1 human pancreas tumors (oncogenic K-ras); assay: Panc-1 mouse xenograft model, tumor growth (Example 1); type: in vivo, female nude mice; settings: Panc-1 xenograft; N=9 mice per group
Protocol: In this study, female nude mice were implanted subcutaneously (SC) by trocar with Panc-1 tumor fragments harvested from SC growing tumors in nude mice hosts. […] The day of treatment initiation was specified as Day 1. Vehicle control and FK228 were administered intravenously on a […] schedule (Days 1, 5, and 9). Gemcitabine was administered by an intraperitoneal injection on a […] schedule (Days 1, 4, 7, 10). Tumors were measured by Vernier calipers twice weekly.

[6] = tested on: p21^waf; assay: Tissue biomarker immunoblotting of PANC-1 xenograft tumors: p21waf; type: in vivo; settings: PANC-1 tumors at study completion; FK228 5 mg/kg Q4Dx3, gemcitabine 80 mg/kg Q3Dx4, or both
Protocol: as §5

[7] = tested on: c-Myc; assay: Tissue biomarker immunoblotting of PANC-1 xenograft tumors: c-Myc; type: in vivo; settings: PANC-1 tumors at study completion; FK228 5 mg/kg Q4Dx3, gemcitabine 80 mg/kg Q3Dx4, or both; actin-normalized vs control
Protocol: as §5

[8] = tested on: PANC-1 human pancreatic tumor xenograft; assay: PANC-1 human pancreatic tumor xenograft tumor growth inhibition study (Example 3); type: in vivo, female nude mice (nu/nu); settings: PANC-1 study
From the text: as §6

[9] = Animal weight and drug toxicity, BxPC-3 study
From the text: as §1, §2, §3, §4

[10] = Day 25, Gemcitabine 40 mg/kg IP Q3Dx4
[11] = Day 25, Gemcitabine 80 mg/kg IP Q3Dx4
[12] = at the evaluated doses and schedules
[13] = Day 29, Gemcitabine 40 mg/kg IP Q3Dx4
[14] = Day 29, Gemcitabine 80 mg/kg IP Q3Dx4

**Q.** With `Nc1ccn([C@@H]2O[C@H](CO)[C@@H](O)C2(F)F)c(=O)n1` [Gemcitabine, gemcitabine] as the compound, how does the “Final weight data % change” value [1, 10] read?
**A.** Its value is “+7%”.

**Q.** And the “Final weight data mean ± SD” value [1, 10]?
**A.** The value was 24±1 G.

**Q.** What about the “Final weight data % change” value [1, 11] of the same compound?
**A.** Its value is “+12%”.

**Q.** And the “Final weight data mean ± SD” value [1, 11]?
**A.** The value was 26±3 G.

**Q.** And the Drug deaths total ([1]; Gemcitabine 40 mg/kg IP Q3Dx4)?
**A.** The Drug deaths total was 0/9 and 0.

**Q.** And the “Weight nadir % change” value ([1]; Gemcitabine 40 mg/kg IP Q3Dx4)?
**A.** Its value is −2%.

**Q.** And the Weight nadir day ([1]; Gemcitabine 40 mg/kg IP Q3Dx4)?
**A.** The Weight nadir day was 11.

**Q.** What about the Drug deaths total ([1]; Gemcitabine 80 mg/kg IP Q3Dx4) of the same compound?
**A.** Its Drug deaths total is 0/9 and 0.

**Q.** And the “Weight nadir % change” value ([1]; Gemcitabine 80 mg/kg IP Q3Dx4)?
**A.** Its value is −3%.

**Q.** What about the Weight nadir day ([1]; Gemcitabine 80 mg/kg IP Q3Dx4) of the same compound?
**A.** The Weight nadir day was 11.

**Q.** And the “acetylation of histone 3” value [2]?
**A.** The value was “significantly inhibited”.

**Q.** And the “levels of acetylated histone 4 vs control” value [3]?
**A.** The value was “on the control level”.

**Q.** What about the “% TGI” value ([4]; Gemcitabine 40 mg/kg IP Q3Dx4) of the same compound?
**A.** The value was 20%.

**Q.** And the “% TGI” value ([4]; Gemcitabine 80 mg/kg IP Q3Dx4)?
**A.** The value was 9%.

**Q.** And the “#PR/CR” value ([4]; Gemcitabine 40 mg/kg IP Q3Dx4)?
**A.** The value was 0/9 and 0/0.

**Q.** What about the “Activity according to NCI standards” value ([4]; Gemcitabine 40 mg/kg IP Q3Dx4) of the same compound?
**A.** Its value is “inactive”.

**Q.** What about the Tumor necrosis ([4]; Gemcitabine 40 mg/kg IP Q3Dx4) of the same compound?
**A.** The Tumor necrosis was 1/9 animals reported severe tumor necrosis.

**Q.** And the “#PR/CR” value ([4]; Gemcitabine 80 mg/kg IP Q3Dx4)?
**A.** Its value is 0/9 and 0/0.

**Q.** What about the “Activity according to NCI standards” value ([4]; Gemcitabine 80 mg/kg IP Q3Dx4) of the same compound?
**A.** The value was “inactive”.

**Q.** And the Tumor necrosis ([4]; Gemcitabine 80 mg/kg IP Q3Dx4)?
**A.** The Tumor necrosis was 1/9 animals reported mild tumor necrosis.

**Q.** And the “calculated TGI values” [4, 12]?
**A.** The value was “less than 58%”.

**Q.** What about the tumor regression [5] of the same compound?
**A.** Its tumor regression is “no regression”.

**Q.** What about the “p21^waf expression” value [6] of the same compound?
**A.** The value was “downregulated; also recorded: down-regulated”.

**Q.** What about the “extent of inhibition of c-Myc expression” value [7] of the same compound?
**A.** Its value is 50%.

**Q.** What about the “#PR/CR” value ([8]; Gemcitabine 40 mg/kg IP Q3Dx4) of the same compound?
**A.** The value was 1/9 and 1/0.

**Q.** What about the “Activity according to NCI standards” value ([8]; Gemcitabine 40 mg/kg IP Q3Dx4) of the same compound?
**A.** Its value is “inactive”.

**Q.** And the Tumor necrosis ([8]; Gemcitabine 40 mg/kg IP Q3Dx4)?
**A.** Its Tumor necrosis is 1/9 animals reported mild tumor necrosis and 4/9 reported moderate necrosis.

**Q.** And the “#PR/CR” value ([8]; Gemcitabine 80 mg/kg IP Q3Dx4)?
**A.** Its value is 0/9 and 0/0.

**Q.** And the “% TR” value ([8]; Gemcitabine 80 mg/kg IP Q3Dx4)?
**A.** The value was 0%.

**Q.** And the “Activity according to NCI standards” value ([8]; Gemcitabine 80 mg/kg IP Q3Dx4)?
**A.** Its value is “inactive”.

**Q.** What about the Tumor necrosis ([8]; Gemcitabine 80 mg/kg IP Q3Dx4) of the same compound?
**A.** Its Tumor necrosis is 1/9 animals reported slight tumor necrosis, 2/9 reported mild tumor necrosis, and 1/9 reported moderate necrosis.

**Q.** And the “calculated TGI values” [8, 12]?
**A.** Its value is “less than 58%”.

**Q.** What about the “Final weight data % change” value [9, 13] of the same compound?
**A.** Its value is “+9%”.

**Q.** And the “Final weight data mean ± SD” value [9, 13]?
**A.** Its value is 25±3 G.

**Q.** And the “Final weight data % change” value [9, 14]?
**A.** Its value is “+1%”.

**Q.** What about the “Final weight data mean ± SD” value [9, 14] of the same compound?
**A.** Its value is 22±4 G.

**Q.** And the Drug deaths total ([9]; Gemcitabine 40 mg/kg IP Q3Dx4)?
**A.** The Drug deaths total was 0/9 and 0.

**Q.** And the “Weight nadir % change” value ([9]; Gemcitabine 40 mg/kg IP Q3Dx4)?
**A.** Its value is “No weight loss”.

**Q.** And the Drug deaths total ([9]; Gemcitabine 80 mg/kg IP Q3Dx4)?
**A.** Its Drug deaths total is 0/9 and 0.

**Q.** What about the “Weight nadir % change” value ([9]; Gemcitabine 80 mg/kg IP Q3Dx4) of the same compound?
**A.** The value was −9%.

**Q.** What about the Weight nadir day ([9]; Gemcitabine 80 mg/kg IP Q3Dx4) of the same compound?
**A.** Its Weight nadir day is 11.
